System: SA121 hESCs
Experiment: General (monolayer) differentiation on matrigel in defined media, qRT-PCR of stem cell and differentiation markers after 14 days
Type: cell-based, human
Design: key to NO EHNA EFFECT: X: NO EHNA EFFECT; key to Full EHNA effect: those which maintained at least 50% of the level of NANOG-expression in comparison to EHNA and those that inhibited the expression of PAX6 to 50% or less than the value untreated controls were considered to have an EHNA-like effect
Settings: 10 uM, 14 days, qRT-PCR; NANOG at least 50% of EHNA level and PAX6 50% or less of untreated control
Experimental: In order to ascertain the efficacy of the compounds of the present invention, each compound was tested to determine whether it can maintain the stem cell marker NANOG and/or block the differentiation marker PAX6 in the face of differentiating conditions in a manner similar to EHNA. Cells enzymatically passaged onto matrigel-coated dishes and grown for 2 weeks in defined media with or without (control) compound addition were analysed by qRT-PCR to determine the level of NANOG and PAX6 expression.
For general differentiation experiments cells were passaged with trypsin onto matrigel coated twelve-well dishes in the fully supportive media (see above). The media was then changed to defined media 24 h later and any experimental component was first added at this point. The media and experimental supplement were changed daily.
Cells were routinely harvested for qRT-PCR analysis 14 days after the first addition of the experimental compound.
Total RNA was extracted using QIAGEN RNeasy kits (Qiagen Inc, Valencia, Calif., http://www.qiagen.com) and DNaseI treatment was performed using Turbo DNA-Free (Ambion). The absence of genomic DNA was confirmed by quantitative PCR (qPCR) (see below) using glyceraldehyde-3-phosphate dehydrogenase (GAPDH) Taqman primers and probe (MWG). cDNA was synthesized with 2 μg total RNA in 20 μl using Superscript II according to manufacturers' instructions ((Carlsbad, Calif., http://www.Invitrogen.com)). For qPCR, cDNAs were diluted 1 in 60 and 5 μl used per sample in a 15 μl total reaction volume. Platinum pPCR supermix UDG with Rox (Carlsbad, Calif., http://www.Invitrogen.com) was used according to the manufacturer's instructions using an Applied Biosystems 7300 real time PCR system (Applied Biosystems, Warrington, UK, http://europe.appliedbiosystems.com). Each reaction contained 0.6 μM of each primer and Taqman probe (MWG). Biological and technical replicates were each performed in triplicate for each sample, standardised to the GAPDH housekeeping gene and relative expression values were calculated using the 7300 system SDS software (Applied Biosystems, Warrington, UK, http://europe.appliedbiosystems.com).
Cells were enzymatically passaged onto matrigel-coated dishes and grown for 2 weeks in defined media. After 14 days, qRT-PCR was utilised to analyse the expression of a variety of markers of pluripotency and differentiation. In the graphs in FIG. 9 the value 1 was set to the expression level of the gene in undifferentiated SA121 hESCs.
Cells were enzymatically passaged onto matrigel-coated dishes and grown for 2 weeks in defined media (1× confluent T25 tissue culture flask was passaged to 2×12 well dishes) with or without (control) compound addition. All compounds were added at 10 uM and each was performed in triplicate. Media and compounds were changed every 48 hours. After 14 days RNA was isolated and qRT-PCR was utilised to analyse the expression of NANOG and PAX6. The results are illustrated in FIGS. 13 to 17.
In the graphs in FIGS. 13, 14 15, 16 and 17 the value 1 was set relative to the expression level of the gene in the control (no compound) samples. […] This experiment allowed the effect of the EHNA-related compounds to be measured directly in comparison to EHNA. […] Those which had on effect, to these levels, on either PAX6 or NANOG were considered to have a partial-EHNA effect.

Compound | Full EHNA effect
CCCCCCCCCCCn1ncc2c(N)ncnc21.Cl [HWC33, 1-undecyl-1H-pyrazolo[3,4-d]pyrimidin-4-amine hydrochloride] | X
CCCCCCCCn1cc2c(N)ncnc2n1.Cl [HWC41, 2-octyl-2H-pyrazolo[3,4-d]pyrimidin-4-amine hydrochloride] | X
CCCCCC(CC)n1cnc2c(N)ncnc21 (racemic) [HWC62, (rac)-9-(octan-3-yl)-9H-purin-6-amine] | X
CCCCCCCCCCn1cnc2c(N)ncnc21 [HWC64, 9-(decan-1-yl)-9H-purin-6-amine] | X
CCCCCCC(CC)n1cnc2c(N)ncnc21 (racemic) [HWC57, (rac)-9-(Nonan-3-yl)-9H-purin-6-amine] | X
CCCCCCCCn1ncc2c(N)ncnc21.Cl [HWC40, 1-octyl-1H-pyrazolo[3,4-d]pyrimidin-4-amine hydrochloride] | X
CCCCCCCCCCn1cc2c(N)ncnc2n1.Cl [HWC6, 2-decyl-2H-pyrazolo[3,4-d]pyrimidin-4-amine hydrochloride] | X

Same assay, conditions: 10 uM, 14 days, qRT-PCR; neither NANOG nor PAX6 criterion met

Compound | NO EHNA EFFECT
CCCCCCC(C(C)O)n1cnc2c(O)ncnc21.Cl (stereo not drawn) [HWC14, erythro-9-(2-hydroxynonan-3-yl)-9H-purin-6-ol hydrochloride] | X
COc1ncnc2c1ncn2[C@H](C)[C@@H](O)CCc1ccccc1.Cl [HWC43, (3S,4R)-4-(6-methoxy-9H-purin-9-yl)-1-phenylpentan-3-ol hydrochloride] | X
C[C@H](O)[C@@H](CCc1ccccc1)n1cnc2c(N)ncnc21.Cl [HWC44, (2S,3R)-3-(6-amino-9H-purin-9-yl)-5-phenylpentan-2-ol hydrochloride] | X
CCCCCCC(C(C)O)n1nnc2cnccc21 (racemic) [HWC54, (rac)-erythro-3-(1H-[1,2,3]triazolo[4,5-c]pyridin-1-yl)nonan-2-ol] | X
CCCCCC[C@H]([C@H](C)O)n1cnc2c(OC)ncnc21 [HWC47, (2S,3R)-3-(6-methoxy-9H-purin-9-yl)nonan-2-ol] | X
CCCCCC[C@@H]([C@@H](C)O)n1cnc(C(=O)NC)c1 [HWC7, erythro-1-(2-hydroxynonan-3-yl)-N-methyl-1H-imidazole-4-carboxamide] | X
CCCCCC[C@H](O)[C@@H](C)n1cnc2c(OC)ncnc21 [HWC49, (2R,3S)-2-(6-methoxy-9H-purin-9-yl)nonan-3-ol] | X
COc1ncnc2c1ncn2[C@H](CCc1ccccc1)[C@H](C)O.Cl [HWC45, (2S,3R)-3-(6-methoxy-9H-purin-9-yl)-5-phenylpentan-2-ol hydrochloride] | X
CCCCCC[C@@H]([C@@H](C)O)n1cnc2c(OC)ncnc21 [HWC53, (2R,3S)-3-(6-methoxy-9H-purin-9-yl)nonan-2-ol] | X
CCCCCC[C@@H]([C@@H](C)O)n1cnc(C(N)=O)c1 [HWC36, erythro-1-(2-hydroxynonan-3-yl)-1H-imidazole-4-carboxamide] | X

Same assay, conditions: 10 uM, 14 days, qRT-PCR; only NANOG at least 50% of EHNA level

Compound | PARTIAL EHNA EFFECT (NANOG)
CCCCC[C@H](O)[C@@H](C)n1cnc2c(N)ncnc21 [HWC58, (2R,3S)-2-(6-amino-9H-purin-9-yl)octan-3-ol] | X (Those which had on effect, to these levels, on either PAX6 or NANOG were considered to have a partial-EHNA effect)

Same assay, conditions: 10 uM, 14 days, qRT-PCR; only PAX6 50% or less of untreated control

Compound | PARTIAL EHNA EFFECT (PAX6)
Nc1ncnc2c1cnn2CCN1CCOCC1 [HWC28, 1-(2-morpholinoethyl)-1H-pyrazolo[3,4-d]pyrimidin-4-amine] | X (Those which had on effect, to these levels, on either PAX6 or NANOG were considered to have a partial-EHNA effect)
CCCCCC[C@@H]([C@@H](C)O)n1cnc2c(N)nccc21.Cl [HWC9, erythro-3-(4-Amino-1H-imidazo[4,5-c]pyridin-1-yl)nonan-2-ol hydrochloride] | X (Those which had on effect, to these levels, on either PAX6 or NANOG were considered to have a partial-EHNA effect)
CCCCCC[C@H](O)[C@@H](C)n1cnc2c(N)ncnc21 [HWC48, (2R,3S)-2-(6-amino-9H-purin-9-yl)nonan-3-ol] | X (Those which had on effect, to these levels, on either PAX6 or NANOG were considered to have a partial-EHNA effect)
CCCCCCC(C(C)O)n1cnc2c(S)ncnc21.Cl (stereo not drawn) [HWC13, erythro-3-(6-mercapto-9H-purin-9-yl)nonan-2-ol hydrochloride] | X (Those which had on effect, to these levels, on either PAX6 or NANOG were considered to have a partial-EHNA effect)
CCCCCC[C@@H]([C@@H](C)O)n1cnc2cncnc21 [HWC12, erythro-3-(9H-purin-9-yl)nonan-2-ol] | X (Those which had on effect, to these levels, on either PAX6 or NANOG were considered to have a partial-EHNA effect)
CCCCCC[C@@H]([C@@H](C)O)n1cnc2c(N(C)C)ncnc21.Cl [HWC17, erythro-3-[6-(dimethylamino)-9H-purin-9-yl]nonan-2-ol hydrochloride] | X (Those which had on effect, to these levels, on either PAX6 or NANOG were considered to have a partial-EHNA effect)
CCCCCCCC(CC)n1cnc2c(N)ncnc21 (racemic) [HWC63, (rac)-9-(decan-3-yl)-9H-purin-6-amine] | X (Those which had on effect, to these levels, on either PAX6 or NANOG were considered to have a partial-EHNA effect)
CCCCCCC(C(C)O)n1c(C)nc2c(N)ncnc21.Cl (stereo not drawn) [HWC24, erythro-3-(6-Amino-8-methyl-9H-purin-9-yl)nonan-2-ol hydrochloride] | X (Those which had on effect, to these levels, on either PAX6 or NANOG were considered to have a partial-EHNA effect)
CCCCCCC(C(C)O)n1cnc2c(Cl)ncnc21 (stereo not drawn) [HWC10, erythro-3-(6-Chloro-9H-purin-9-yl)nonan-2-ol] | X (Those which had on effect, to these levels, on either PAX6 or NANOG were considered to have a partial-EHNA effect)
COCCOCCn1ncc2c(N)ncnc21 [HWC34, 1-[2-(2-methoxyethoxy)ethyl]-1H-pyrazolo[3,4-d]pyrimidin-4-amine] | X (Those which had on effect, to these levels, on either PAX6 or NANOG were considered to have a partial-EHNA effect)
C[C@H]([C@@H](O)CCc1ccccc1)n1cnc2c(N)ncnc21.Cl [HWC42, (3S,4R)-4-(6-amino-9H-purin-9-yl)-1-phenylpentan-3-ol hydrochloride] | X (Those which had on effect, to these levels, on either PAX6 or NANOG were considered to have a partial-EHNA effect)

Same assay, conditions: FIG. 10

Compound | prevention of differentiation of hESCs
CCCCCCCCCCn1cc2c(N)ncnc2n1.Cl [HWC6, 2-decyl-2H-pyrazolo[3,4-d]pyrimidin-4-amine hydrochloride] | can prevent differentiation of hESCs
CCCCCCC(C(C)O)n1cnc2cccnc21.Cl (centres unmarked) [HWC-5, 3-(3H-imidazo[4,5-b]pyridin-3-yl)nonan-2-ol hydrochloride] | can prevent differentiation of hESCs

Same assay, conditions: qRT-PCR, 14 days

Compound | PAX6 expression in differentiating conditions
CCCCCCCCCCn1cc2c(N)ncnc2n1.Cl [HWC6, 2-decyl-2H-pyrazolo[3,4-d]pyrimidin-4-amine hydrochloride] | inhibiting PAX6 expression
CCCCCCC(C(C)O)n1cnc2cccnc21.Cl (centres unmarked) [HWC-5, 3-(3H-imidazo[4,5-b]pyridin-3-yl)nonan-2-ol hydrochloride] | inhibiting PAX6 expression

Same assay, conditions: qRT-PCR, 14 days, relative to untreated control

Compound | NANOG expression in differentiating conditions
CCCCCCCCCCn1cc2c(N)ncnc2n1.Cl [HWC6, 2-decyl-2H-pyrazolo[3,4-d]pyrimidin-4-amine hydrochloride] | capable of maintaining NANOG
CCCCCCC(C(C)O)n1cnc2cccnc21.Cl (centres unmarked) [HWC-5, 3-(3H-imidazo[4,5-b]pyridin-3-yl)nonan-2-ol hydrochloride] | capable of maintaining NANOG

— patent publication US20120202287A1, “Stem Cell Culture Methods” (priority 2009, published 2012)
